Assay results: publication PMC10460844, “Real‐Time Monitoring of Multitarget Antimicrobial Mechanisms of Peptoids Using Label‐Free Imaging with Optical Diffraction Tomography” (Advanced Science, 2023)
Converted amounts (≈) assume the structure as drawn. Counter-ions that a name gives are not always drawn. Like-named read-outs stand apart in the source and are kept apart here. Square brackets hold non-standard residues; d marks the D form. Peptide text beside a SMILES is read from it. Nspe = C[C@H](NCC(=O)O)c1ccccc1; Nlys = NCCCCNCC(=O)O

Legend:
E. coli ATCC 25922 [1] = type: cell-based, Escherichia coli; conditions: mean of triplicate
Method: (§1) The antibacterial activity of the peptoids was evaluated against gram‐positive (Staphylococcus aureus, ATCC 25 923) and gram‐negative (Escherichia coli, ATCC 25 922) bacteria. […] The MIC of each peptoid was determined using a broth dilution assay. For each assay, the primary culture of either S. aureus or E. coli was grown overnight in cation‐adjusted Mueller Hinton broth 2 (MHB2) media at 37 °C with shaking. A secondary culture was prepared the next day, grown for 3–4 h, and then diluted in MHB2 media with a final concentration of 0.001% acetic acid and 0.02% bovine serum albumin to obtain a calculated optical density (OD) of 0.001. This corresponded to ≈2–5 × 10^5 colony‐forming units (CFU mL^−1) of bacteria. Using 96‐well polypropylene plates (Eppendorf, Hamburg, Germany), 100 µL of 2–5 × 10^5 CFU mL^−1 bacteria were added in triplicate for each peptoid. Each peptoid was assayed at six different concentrations in two‐fold serial dilutions. The maximum peptoid concentration was 25 µM. […] The MIC value determination was performed in triplicate. The MIC was defined as the lowest peptoid concentration that prevented turbidity during visual inspection.

[2] = system: MRC-5 human lung fibroblast cells; type: cell-based; conditions: Table S3, counter-ion exchange series; MTS assay, 24 h
Method: 4. Cell culture and cytotoxicity test using MTS assay
(Seoul, South Korea), human keratinocytes (HaCaT) were provided by the Skin Research Institute R&D Center of Amore Pacific Company (Yongin, South Korea). All cells were grown in Dulbecco's modified Eagle’s medium (DMEM) supplemented with 10% fetal bovine serum at 37 °C in an atmosphere containing 5% CO2. The 3-(4,5-dimethylthiazol-2- […]
assays were used to determine the effects of peptoids on cell growth.[4] Aliquots (100 µL) of media containing 1.3×10^4 MRC-5 cells/mL or 3×10^4 HaCaT cells/mL were distributed into each well of a 96-well plate (Eppendorf, Hamburg, Germany). The cells were allowed to attach and were grown in a humidified atmosphere containing 5% CO2 at 37 °C for 24 h.
When the cell density reached approximately 70% confluency, the medium was replaced with serial dilutions of the peptoid stock in DMEM and incubated for an additional 24 h. At this point, 20 µL of the CellTiter 96 aqueous non-radioactive cell proliferation assay reagent (Promega, Madison, WI, USA), which contains the tetrazolium compound, was added to each well. Plates were incubated for 4 h at 37 °C to allow time for metabolism. The MTS-formazan products in viable cells were measured at 490 nm using a microplate reader, and the percentage of cell viability (%) was calculated by comparing readings to the values of untreated wells. Percentage values of cell viability were calculated as A/(A control)×100, where A is the absorbance of the test well and A control is the average absorbance of wells containing untreated cells. […]

rat erythrocytes = assay: Hemolysis assay; type: cell-based
How it was run: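 Washed Sprague-Dawley rat erythrocytes (10% suspension in PBS pH 7.4) mixed with peptoids (0–100 µM), 60 min at 37 °C; supernatant A540 expressed as % of 1% Triton X-100 lysis. HC10/HC50 are concentrations giving 10%/50% hemolysis; Hmax is hemolysis at 100 µM.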

S. aureus ATCC 25923 = type: cell-based, Staphylococcus aureus
Method: as §1

E. coli ATCC 25922 [3] = assay: NPN uptake assay (outer membrane); type: cell-based; conditions: E. coli ATCC 25922, 5 mM HEPES pH 7.2, 10 µM NPN, fluorescence
Method: 14. In vitro biological assays […]
The ability of peptoids to increase the permeability of the outer membrane of Gram-negative bacteria was determined by measuring the incorporation of the NPN fluorescent dye into the outer membrane of E. coli ATCC 25922. Bacterial cells were suspended to a final concentration of OD600 = 0.05 in 5 mM HEPES buffer, pH 7.2, containing 5 mM KCN. Then […]
200 μL NPN dye was added to wells of a 96 well plate to produce a final concentration of 10 μM, and the background fluorescence was recorded (λex = 350 nm, λem = 420 nm). Aliquots of peptoids were added to the well, and fluorescence was recorded as a function of time until there was no further increase in fluorescence. Increases of the permeability of the outer membrane after the addition of peptoids was reflected by increased fluorescence values as a result of NPN incorporation into the membrane. […]

[4] = Analytical reversed-phase HPLC elution (hydrophobicity); type: physicochemical; conditions: Table 1; analytical RP-HPLC, SunFire C18 […] 250 mm, water/ACN + 0.1% TFA, 5% B 2 min then linear to 100% B over 30 min, 1 mL/min, UV 220 nm; used as measure of hydrophobicity
How it was run: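 Retention time (tR) reflects hydrophobicity, with detection at 220 nm. Elution used a 5–100% acetonitrile linear gradient over 30 min after a 2 min hold at 5%, then 5 min at 100%, with both phases containing 0.1% TFA. Column was an analytical C18 (4.6 × 250 mm, 5 μm) run at 1 mL/min.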

E. faecium KCTC 13225 = type: cell-based; conditions: KCTC 13225
E. coli ML-35 cells = assay: ONPG hydrolysis assay (inner membrane); type: cell-based; conditions: 1.5 mM ONPG, 10 mM sodium phosphate pH 7.4, absorbance 405 nm
Method: The permeability of the inner membrane was determined using E. coli ML-35 cells […]
The intact bacterial inner membrane is non-permeable to o-nitrophenyl-β-D-galactopyranoside (OPNG), a chromogenic substrate of the β-galactosidase.
Following damage to the inner membrane, OPNG enters the cells and is metabolized by β-galactosidase creating a chromogenic […]. E. coli cells were washed in 10 mM sodium phosphate (pH 7.4) containing 100 mM NaCl and resuspended in the same buffer at a final concentration of OD600 = 0.5 containing 1.5 mM ONPG. The hydrolysis of ONPG and generation of o-nitrophenol over time were monitored as absorbance change at 405 nm following the addition of peptoids. […]

S. typhimurium SL 1344 = type: cell-based; conditions: SL 1344
E. faecalis KCTC 3511 = type: cell-based; conditions: KCTC 3511
[5] = Table S3, counter-ion exchange series (TFA, HCl, AcOH salts)
[6] = Table S3, counter-ion exchange series, 10% hemolysis in rat erythrocytes, mean of triplicate
[7] = Table S3, counter-ion exchange series, 50% hemolysis in rat erythrocytes, mean of triplicate
[8] = Table S3, counter-ion exchange series, hemolysis at 100 µM
[9] = Table S3, counter-ion exchange series, mean of triplicate
[10] = Table S2, broth dilution, MHB2, 37 °C 24 h, max 25 µM
[11] = Table S2, broth dilution, MHB2, 37 °C 24 h, max 25 µM, mean of triplicate

With `C[C@@H](c1ccccc1)N(CC(N)=O)C(=O)CN(C(=O)CN(CCCCN)C(=O)CN(C(=O)CN(C(=O)CN(CCCCN)C(=O)CN(C(=O)CN(C(=O)CN(CCCCN)C(=O)CN(C(=O)CN(C(=O)CNCCCCN)[C@@H](C)c1ccccc1)[C@@H](C)c1ccccc1)[C@@H](C)c1ccccc1)[C@@H](C)c1ccccc1)[C@@H](C)c1ccccc1)[C@@H](C)c1ccccc1)[C@@H](C)c1ccccc1` [1-AcOH] (H-[Nlys][Nspe][Nspe][Nlys][Nspe][Nspe][Nlys][Nspe][Nspe][Nlys][Nspe][Nspe]-NH2) the “MIC E. coli ATCC25922” value (E. coli ATCC 25922 [1]; [5]) was 12.5 µM, the “LC50 MRC-5” value [2] was 8.6 µM and the HC10 (rat erythrocytes; [6]) was 25.0 µM. For the same compound, the HC50 (rat erythrocytes; [7]) was 78.6 µM, the “Hmax (100 µM)” value (rat erythrocytes; [8]) was 58.2±1.7% and the “MIC S. aureus ATCC25923” value (S. aureus ATCC 25923; [9]) was 3.1 µM (≈ 5.64 µg/mL).

In the case of `C[C@@H](c1ccccc1)N(CC(N)=O)C(=O)CN(C(=O)CN(CCCCN)C(=O)CN(C(=O)CN(C(=O)CN(CCCCN)C(=O)CN(C(=O)CN(C(=O)CN(CCCCN)C(=O)CN(C(=O)CN(C(=O)CNCCCCN)[C@@H](C)c1ccccc1)[C@@H](C)c1ccccc1)[C@@H](C)c1ccccc1)[C@@H](C)c1ccccc1)[C@@H](C)c1ccccc1)[C@@H](C)c1ccccc1)[C@@H](C)c1ccccc1` [1-HCl] (H-[Nlys][Nspe][Nspe][Nlys][Nspe][Nspe][Nlys][Nspe][Nspe][Nlys][Nspe][Nspe]-NH2), the “MIC E. coli ATCC25922” value (E. coli ATCC 25922 [1]; [5]) is reported as 6.3 µM, the “LC50 MRC-5” value [2] is reported as 11.8 µM and the HC10 (rat erythrocytes; [6]) is reported as 27.6 µM. For the same compound, the HC50 (rat erythrocytes; [7]) was 83.3 µM, the “Hmax (100 µM)” value (rat erythrocytes; [8]) was 61.5±0.9% and the “MIC S. aureus ATCC25923” value (S. aureus ATCC 25923; [9]) was 1.6 µM.

For `C[C@@H](c1ccccc1)N(CC(N)=O)C(=O)CN(C(=O)CN(CCCCN)C(=O)CN(C(=O)CN(C(=O)CN(CCCCN)C(=O)CN(C(=O)CN(C(=O)CN(CCCCN)C(=O)CN(CCc1c[nH]c2ccccc12)C(=O)CN(C(=O)CNCCCCN)[C@@H](C)c1ccccc1)[C@@H](C)c1ccccc1)[C@@H](C)c1ccccc1)[C@@H](C)c1ccccc1)[C@@H](C)c1ccccc1)[C@@H](C)c1ccccc1` [peptoid 10], the “outer membrane disruption (NPN uptake)” value (E. coli ATCC 25922 [3]) was “strongly disrupted”, the “HPLC elution (%ACN)” value [4] was 54.9 %ACN and the “MIC E. coli ATCC25922” value (E. coli ATCC 25922 [1]; [10]) was 3.1 µM (≈ 5.76 µg/mL). For the same compound, the “MIC E. coli ATCC25922” value (E. coli ATCC 25922 [1]; [5]) was 3.1 µM, the “MIC E. faecium KCTC 13225” value (E. faecium KCTC 13225) was 12.5 µM (≈ 23.2 µg/mL) and the “inner membrane disruption (ONPG hydrolysis)” value (E. coli ML-35 cells) was “strongly disrupted”. The “MIC S. typhimurium SL 1344” value (S. typhimurium SL 1344) was 12.5 µM (≈ 23.2 µg/mL), the “H max (100 µM)” value (rat erythrocytes) was 108.1 ± 1.7% and the “Hmax (100 µM)” value (rat erythrocytes) was 101.4±5.1%. It also gave an HC10 (rat erythrocytes; pH 7.4) of 6.6 µM, an HC50 (rat erythrocytes; pH 7.4) of 17.0 µM and an HC10 (rat erythrocytes; red cells of rat) of 6.9 µM. For the same compound, the HC50 (rat erythrocytes; red cells of rat) was 25.8 µM, the “MIC E. faecalis KCTC 3511” value (E. faecalis KCTC 3511) was 12.5 µM (≈ 23.2 µg/mL) and the “MIC S. aureus ATCC25923” value (S. aureus ATCC 25923; ATCC 25923) was 0.8 µM (≈ 1.49 µg/mL). For the same compound, the “MIC S. aureus ATCC25923” value (S. aureus ATCC 25923; [11]) was 1.6 µM (≈ 2.97 µg/mL).

For `C[C@@H](c1ccccc1)N(CC(N)=O)C(=O)CN(C(=O)CN(CCCCN)C(=O)CN(C(=O)CN(C(=O)CN(CCCCN)C(=O)CN(C(=O)CN(C(=O)CN(CCCCN)C(=O)CN(CCc1c[nH]c2ccccc12)C(=O)CN(CCc1c[nH]c2ccccc12)C(=O)CNCCCCN)[C@@H](C)c1ccccc1)[C@@H](C)c1ccccc1)[C@@H](C)c1ccccc1)[C@@H](C)c1ccccc1)[C@@H](C)c1ccccc1` [peptoid 14], the “outer membrane disruption (NPN uptake)” value (E. coli ATCC 25922 [3]) was “strongly disrupted”, the “HPLC elution (%ACN)” value [4] was 55.6 %ACN and the “MIC E. coli ATCC25922” value (E. coli ATCC 25922 [1]; [10]) was 3.1 µM (≈ 5.88 µg/mL). For the same compound, the “MIC E. coli ATCC25922” value (E. coli ATCC 25922 [1]; [5]) was 3.1 µM, the “MIC E. faecium KCTC 13225” value (E. faecium KCTC 13225) was less than 0.8 µM and the “inner membrane disruption (ONPG hydrolysis)” value (E. coli ML-35 cells) was “strongly disrupted”. For the same compound, the “MIC S. typhimurium SL 1344” value (S. typhimurium SL 1344) was 12.5 µM (≈ 23.7 µg/mL), the “H max (100 µM)” value (rat erythrocytes) was 90.0 ± 7.3% and the “Hmax (100 µM)” value (rat erythrocytes) was 112.9±2.1%. For the same compound, the HC10 (rat erythrocytes; red cells of rat) was 12.5 µM, the HC50 (rat erythrocytes; red cells of rat) was 21.1 µM and the “MIC E. faecalis KCTC 3511” value (E. faecalis KCTC 3511) was 1.6 µM (≈ 3.04 µg/mL). For the same compound, the “MIC S. aureus ATCC25923” value (S. aureus ATCC 25923; ATCC 25923) was 1.6 µM (≈ 3.04 µg/mL) and the “MIC S. aureus ATCC25923” value (S. aureus ATCC 25923; [11]) was less than 0.8 µM.
